In US20090318424A1, “NOVEL COMPOUNDS” (priority 2006, published 2009):

Columns and labels:
[1] = test system: influx of neutrophils to the lung in LPS-challenged rats; assay: Rat LPS neutrophilia model; assay type: in vivo; details: LPS aerosol 100 ug/ml 15 min, lavage 4 hours later; in at least one of the range of conditions tested
Procedure, shortened: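 Rats were dosed intratracheally (200 µl, suspension, under isoflurane) 15 min–24 h before 15 min exposure to LPS aerosol (100 µg/ml). Four hours later, bronchoalveolar lavage cells were stained and counted differentially. Results are % neutrophil inhibition versus untreated controls at a stated dose and pretreatment time.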

| Structure (SMILES) | inhibition of neutrophilia [1] | melting point |
| --- | --- | --- |
| Cc1ccc(C(=O)Nc2ccc(C)c(-c3nc(N(C)C)nc4c3CNC(=O)N4c3c(F)cccc3F)c2)cc1F [Example 28, N-{3-[8-(2,6-difluorophenyl)-2-(dimethylamino)-7-oxo-5,6,7,8-tetrahydropyrimido[4,5-d]pyrimidin-4-yl]-4-methylphenyl}-3-fluoro-4-methylbenzamide] | statistically nonsignificant inhibition | 257.8 to 264.3 °C |
| Cc1ccc(C(=O)NCc2ccccc2)cc1-c1nc(NCCCN(C)C)nc2c1CNC(=O)N2c1c(F)cccc1F [Example 151, 3-(8-(2,6-difluorophenyl)-2-{[3-(dimethylamino)propyl]amino}-7-oxo-5,6,7,8-tetrahydropyrimido[4,5-d]pyrimidin-4-yl)-4-methyl-N-(phenylmethyl)benzamide] | statistically nonsignificant inhibition | 141 to 144 °C |
| Cc1ccc(NC(=O)c2ccsc2)cc1-c1nc(N2CCC(N)CC2)nc2c1CNC(=O)N2c1c(F)cccc1F [Example 11, N-{3-[2-(4-amino-1-piperidinyl)-8-(2,6-difluorophenyl)-7-oxo-5,6,7,8-tetrahydropyrimido[4,5-d]pyrimidin-4-yl]-4-methylphenyl}-3-thiophenecarboxamide] | statistically significant inhibition | 250 to 261 °C (dec.) |
| Cc1ccc(C(=O)NCc2ccccc2)cc1-c1nc(N2CCN(C)CC2)nc2c1CNC(=O)N2c1c(F)cccc1F [Example 148, 3-[8-(2,6-difluorophenyl)-2-(4-methyl-1-piperazinyl)-7-oxo-5,6,7,8-tetrahydropyrimido[4,5-d]pyrimidin-4-yl]-4-methyl-N-(phenylmethyl)benzamide] | statistically nonsignificant inhibition | 164 to 168 °C |
| Cc1ccc(C(=O)Nc2ccc(C)c(-c3nc(N4CCC(N)CC4)nc4c3CNC(=O)N4c3c(F)cccc3F)c2)cc1F [Example 24, N-{3-[2-(4-amino-1-piperidinyl)-8-(2,6-difluorophenyl)-7-oxo-5,6,7,8-tetrahydropyrimido[4,5-d]pyrimidin-4-yl]-4-methylphenyl}-3-fluoro-4-methylbenzamide] | statistically nonsignificant inhibition | 240 °C |
| Cc1ccc(C(=O)Nc2ccc(C)c(-c3nc(NC4CC(C)(C)NC(C)(C)C4)nc4c3CNC(=O)N4c3c(F)cccc3F)c2)cc1F [23(e), N-(3-{8-(2,6-difluorophenyl)-7-oxo-2-[(2,2,6,6-tetramethyl-4-piperidinyl)amino]-5,6,7,8-tetrahydropyrimido[4,5-d]pyrimidin-4-yl}-4-methylphenyl)-3-fluoro-4-methylbenzamide] | statistically nonsignificant inhibition | 220 °C (dec.) |
| CNC(=O)c1ccc(C)c(-c2nc(N3CCC(N4CCCCC4)CC3)nc3c2CNC(=O)N3c2c(F)cccc2F)c1 [Example 176, 3-[2-(1,4′-bipiperidin-1′-yl)-8-(2,6-difluorophenyl)-7-oxo-5,6,7,8-tetrahydropyrimido[4,5-d]pyrimidin-4-yl]-N,4-dimethylbenzamide] | statistically nonsignificant inhibition | 179 to 184 °C (dec.) |
| Cc1ccc(C(=O)Nc2ccc(C)c(-c3nc(NC4CCNCC4)nc4c3CNC(=O)N4c3c(F)cccc3F)c2)cc1F [Example 27(b), N-{3-[8-(2,6-difluorophenyl)-7-oxo-2-(4-piperidinylamino)-5,6,7,8-tetrahydropyrimido[4,5-d]pyrimidin-4-yl]-4-methylphenyl}-3-fluoro-4-methylbenzamide] | – | 218 to 223.5 °C |
| CNC(=O)c1ccc(C)c(-c2nc(N(C)CCCN(C)C)nc3c2CNC(=O)N3c2c(F)cccc2F)c1 [Example 174, 3-{8-(2,6-difluorophenyl)-2-[[3-(dimethylamino)propyl](methyl)amino]-7-oxo-5,6,7,8-tetrahydropyrimido[4,5-d]pyrimidin-4-yl}-N,4-dimethylbenzamide] | inactive | 163 to 165 °C |
| CCN(CC)CCCNc1nc(-c2cc(C(=O)NC)ccc2C)c2c(n1)N(c1c(F)cccc1F)C(=O)NC2 [Example 172, 3-[2-{[3-(diethylamino)propyl]amino}-8-(2,6-difluorophenyl)-7-oxo-5,6,7,8-tetrahydropyrimido[4,5-d]pyrimidin-4-yl]-N,4-dimethylbenzamide] | statistically nonsignificant inhibition | 133 to 136 °C |
| Cc1ccc(C(=O)NCc2ccccc2)cc1-c1nc(NC2CCN(C)CC2)nc2c1CNC(=O)N2c1c(F)cccc1F [Example 22, 3-{8-(2,6-Difluorophenyl)-2-[(1-methyl-4-piperidinyl)amino]-7-oxo-5,6,7,8-tetrahydropyrimido[4,5-d]pyrimidin-4-yl}-4-methyl-N-(phenylmethyl)benzamide] | – | 152 to 154 °C (dec.) |
| Cc1ccc(C(=O)NCc2ccccc2)cc1-c1nc(NC2CCNCC2)nc2c1CNC(=O)N2c1c(F)cccc1F [21(b), 3-[8-(2,6-Difluorophenyl)-7-oxo-2-(4-piperidinylamino)-5,6,7,8-tetrahydropyrimido[4,5-d]pyrimidin-4-yl]-4-methyl-N-(phenylmethyl)benzamide] | – | 172 to 176 °C (dec.) |
| CCN(CC)C(=O)c1ccc(C)c(-c2nc(NC3CCN(C)CC3)nc3c2CNC(=O)N3c2c(F)cccc2F)c1 [Example 159, 3-{8-(2,6-difluorophenyl)-2-[(1-methyl-4-piperidinyl)amino]-7-oxo-5,6,7,8-tetrahydropyrimido[4,5-d]pyrimidin-4-yl}-N,N-diethyl-4-methylbenzamide] | – | 165 to 169 °C |
| Cc1ccc(C(=O)N(C)C)cc1-c1nc(NCCNC(C)C)nc2c1CNC(=O)N2c1c(F)cccc1F [Example 153, 3-[8-(2,6-difluorophenyl)-2-({2-[(1-methylethyl)amino]ethyl}amino)-7-oxo-5,6,7,8-tetrahydropyrimido[4,5-d]pyrimidin-4-yl]-N,N,4-trimethylbenzamide] | – | 130 to 133 °C |
| CNC(=O)c1ccc(C)c(-c2nc(N3CCC(N4CCCC4)CC3)nc3c2CNC(=O)N3c2c(F)cccc2F)c1 [Example 175, 3-{8-(2,6-difluorophenyl)-7-oxo-2-[4-(1-pyrrolidinyl)-1-piperidinyl]-5,6,7,8-tetrahydropyrimido[4,5-d]pyrimidin-4-yl}-N,4-dimethylbenzamide] | inactive | 189 to 194 °C (dec.) |
| Cc1ccc(C(=O)NCc2ccccc2)cc1-c1nc(NCCN(C)C)nc2c1CNC(=O)N2c1c(F)cccc1F [Example 18, 3-(8-(2,6-Difluorophenyl)-2-{[2-(dimethylamino)ethyl]amino}-7-oxo-5,6,7,8-tetrahydropyrimido[4,5-d]pyrimidin-4-yl)-4-methyl-N-(phenylmethyl)benzamide] | – | 148 to 150 °C |
| CCCCN(CCCC)CCCNc1nc(-c2cc(C(=O)NC)ccc2C)c2c(n1)N(c1c(F)cccc1F)C(=O)NC2 [Example 171, 3-[2-{[3-(dibutylamino)propyl]amino}-8-(2,6-difluorophenyl)-7-oxo-5,6,7,8-tetrahydropyrimido[4,5-d]pyrimidin-4-yl]-N,4-dimethylbenzamide] | – | 112 to 115 °C |
| CNC(=O)c1ccc(C)c(-c2nc(NCCNC(C)C)nc3c2CNC(=O)N3c2c(F)cccc2F)c1 [Example 167, 3-[8-(2,6-difluorophenyl)-2-({2-[(1-methylethyl)amino]ethyl}amino)-7-oxo-5,6,7,8-tetrahydropyrimido[4,5-d]pyrimidin-4-yl]-N,4-dimethylbenzamide] | – | 136 to 139 °C (dec.) |
| COc1nc(-c2cc(NC(=O)c3ccsc3)ccc2C)c2c(n1)N(c1c(F)cccc1F)C(=O)NC2 [10(e), N-{3-[8-(2,6-difluorophenyl)-2-(methyloxy)-7-oxo-5,6,7,8-tetrahydropyrimido-[4,5-d]pyrimidin-4-yl]-4-methylphenyl}-3-thiophenecarboxamide] | – | 225 to 228 °C (dec.) |
| Cc1ccc(C(=O)NCc2ccccc2)cc1-c1nc(NC2CC(C)(C)NC(C)(C)C2)nc2c1CNC(=O)N2c1c(F)cccc1F [Example 16, 3-{8-(2,6-Difluorophenyl)-7-oxo-2-[(2,2,6,6-tetramethyl-4-piperidinyl)amino]-5,6,7,8-tetrahydropyrimido[4,5-d]pyrimidin-4-yl}-4-methyl-N-(phenylmethyl)benzamide] | – | 160 to 165 °C (dec.) |
| CCOc1nc(-c2cc(NC(=O)c3ccc(C)c(F)c3)ccc2C)c2c(n1)N(c1c(F)cccc1F)C(=O)NC2 [Example 25, N-{3-[8-(2,6-difluorophenyl)-2-(ethyloxy)-7-oxo-5,6,7,8-tetrahydropyrimido[4,5-d]pyrimidin-4-yl]-4-methylphenyl}-3-fluoro-4-methylbenzamide] | – | 257.3 to 262.5 °C |
| CNCCNc1nc(-c2cc(C(=O)NCc3ccccc3)ccc2C)c2c(n1)N(c1c(F)cccc1F)C(=O)NC2 [19(b), 3-(8-(2,6-Difluorophenyl)-2-{[2-(methylamino)ethyl]amino}-7-oxo-5,6,7,8-tetrahydropyrimido[4,5-d]pyrimidin-4-yl)-4-methyl-N-(phenylmethyl)benzamide] | – | 157 to 161 °C |
| Cc1ccc(C(=O)NCc2ccccc2)cc1-c1nc(NCCNC(C)C)nc2c1CNC(=O)N2c1c(F)cccc1F [Example 20, 3-[8-(2,6-Difluorophenyl)-2-({2-[(1-methylethyl)amino]ethyl}amino)-7-oxo-5,6,7,8-tetrahydropyrimido[4,5-d]pyrimidin-4-yl]-4-methyl-N-(phenylmethyl)benzamide] | – | 133 to 137 °C |
| CCN(CC)C(=O)c1ccc(C)c(-c2nc(NCCNC(C)C)nc3c2CNC(=O)N3c2c(F)cccc2F)c1 [Example 160, 3-[8-(2,6-difluorophenyl)-2-({2-[(1-methylethyl)amino]ethyl}amino)-7-oxo-5,6,7,8-tetrahydropyrimido[4,5-d]pyrimidin-4-yl]-N,N-diethyl-4-methylbenzamide] | – | 89 to 91 °C |
